Results reported in ChEMBL document CHEMBL1201862, “PubChem BioAssay data set” (2004).
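Grown in 96-well plates, cells were treated for 48 hours with each compound at five concentrations. Insufficient inhibition: endpoint recorded as highest concentration tested. GI50 marks 50% less growth.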 Active and inactive are the calls of the source. No stated cut-off is given here; in the data, active = GI50 up to about 1.1 µM and inactive = higher.

Columns and labels:
Test in all cases: DTP human tumour cell line panel, 48 h
SW-620 = system: SW-620
U-251 = system: U-251
SNB-75 = system: SNB-75
NCI-H226 = system: NCI-H226
HCC 2998 = system: HCC 2998
HT-29 = system: HT-29
MDA-MB-231 = system: MDA-MB-231
NCI-H522 = system: NCI-H522
MOLT-4 = system: MOLT-4
MCF7 = system: MCF7
SF-295 = system: SF-295
MDA-N = system: MDA-N
Malme-3M = system: Malme-3M
K562 = system: K562
KM12 = system: KM12
RXF 393 = system: RXF 393
SR = system: SR
SK-MEL-5 = system: SK-MEL-5
786-0 = system: 786-0
OVCAR-8 = system: OVCAR-8

Measured: GI50

COc1ccc(/N=c2\ssc(C(=S)Nc3ccc(OC)cc3)c2S)cc1
inactive: SW-620 > 100 µM | U-251 75.7 µM | SNB-75 > 100 µM | NCI-H226 > 100 µM | HCC 2998 32.4 µM | HT-29 > 100 µM | MDA-MB-231 > 100 µM | NCI-H522 > 100 µM | MOLT-4 > 100 µM | MCF7 69 µM | SF-295 > 100 µM | MDA-N > 100 µM | Malme-3M > 100 µM | K562 37.7 µM | KM12 > 100 µM | RXF 393 > 100 µM | SR > 100 µM | SK-MEL-5 > 100 µM | 786-0 > 100 µM | OVCAR-8 97.5 µM
